The source of these data is patent US12690590B2, “Phenyl compound and plant disease control method” (SUMITOMO CHEMICAL COMPANY, LIMITED, priority 2020, dated 2026).

One experiment relates to Microsphaera diffusa. The experiment in a line: Test Example 10: test for controlling soybean powdery mildew, foliar spray after inoculation. It counts as in vivo. The conditions noted are these: 200 ppm foliar spray 2 days after inoculation, soybeans (Kurosengoku).
The subject of the next experiment is Phytophthora infestans. It counts as in vivo. The note with it: 200 ppm foliar spray, tomatoes (Patio), inoculated 1 day after spraying.

On to `CCCCCSc1ccn(-c2ccc(Cl)cc2)n1` [IIA-53], for which, in the experiment on Microsphaera diffusa, the “lesion area in the treated soybeans relative to the lesion area in the non-treated soybeans” value is reported as at most 30%.
In the case of `CCCS(=O)(=O)c1nc(-c2ccc(C(C)(C)C)cc2)cs1` [IIC-16], in the experiment on Phytophthora infestans, the “lesion area in the treated tomatoes relative to the lesion area in the non-treated tomatoes” value is given as at most 30%.
